Drawing on patent publication US20250333393A1, “HETEROCYCLIC COMPOUND AS TYK2 INHIBITOR, AND SYNTHESIS AND USE THEREOF” (ZHEJIANG WENDA PHARMACEUTICAL TECHNOLOGY CO., LTD., priority 2023, published 2025), this text covers IC50, concentration and Kp for 12 compounds.

For series [1], the system named is pSTAT5 in CD3+ cells. The series is described as follows: Inhibition of IFN-alpha induced pSTAT5 expression in CD3+ cells (human PBMC), FACS assay. The format is cell-based. The settings on record: IFN-α 20 ng/ml. Here is the method: Test Example 1: The Inhibitory Effect of Compounds on the Expression of Pstat5 in CD3+ Cells Using FACS Assay
• DMSO, Sigma, Cat #D2650-100 mL, stored at room temperature. • Perm buffer III, BD Biosciences, Cat #558050, stored at 4° C. • Lyse/Fix buffer, BD Biosciences, Cat #558049, stored at room temperature. • EDTA, Invitrogen, Cat #15575-038, stored at room temperature. • PBS, Hyclone, Cat #SH30256.01, stored at 4° C. • PE Mouse Anti-Human CD3, BD Biosciences, Cat #555333, stored at 4° C. • Mouse anti-human Phospho-STAT5 (pY694) (Alexa Fluor® 647 Conjugate), • BD Biosciences, Cat #562076, stored at 4° C. • IFN-α, Biolegend, Cat #592702.
• 1) On the day of experiment, the compound was prepared into a 10 mM solution with DMSO, diluted to 1.5 mM in DMSO, and then diluted to 8 gradient concentrations in 3-fold dilutions Concentrations. • 2) 5 μL of the diluted compound was transferred into 120 ul of DPBS solution containing 0.1% BSA. • 3) Positive and negative control groups were set up, and 0.2% DMSO was added to the positive and negative control groups. 2.2 Experimental procedure • 1) 0.5 million and 67.5 ul of human PBMC cells was added to the 96-well cell culture plate per well. • 2) 3.5 ul of diluted compound was added and mixed well. • 3) Incubation was conducted in a 37° C. incubator for 60 minutes. • 4) IFN-alpha was diluted in DPBS containing 0.1% BSA to […], and PE anti-hCD3 antibody was diluted in DPBS containing 0.1% BSA to 3 fold. When the above 60-minute incubation was complete, diluted PE anti-hCD3 antibody was added at 5 ul per well and diluted IFN-α was added at 4 ul per well, i.e., the final concentration of IFN-α per well is 20 ng/ml. • 5) Incubation was conducted in a 37° C. incubator for 30 minutes. • 6) All cells were transferred to a 96-well deep well plate and 1 ml of 37° C. preheated lysis/fix buffer was added. • 7) Incubation was conducted at 37° C. in dark for 10 minutes. • 8) Centrifugation was carried out at 600 g for 5 minutes and then the supernatant was discarded. 1 ml PBS was added to wash for twice and then centrifuged. • 9) 1 ml of Perm buffer III was added to the cell precipitation. • 10) Incubation was conducted at 4° C. in dark for 30 minutes. • 11) Centrifugation was carried out at 600 g for 5 minutes and then the supernatant was discarded. 1 ml PBS was added to wash for twice and then centrifuged. • 12) APC anti-human pSTAT5 antibody was diluted in staining buffer by 200-fold, which was added to cell wells at 100 uL per well and mixed well. • 13) Incubation was conducted at room temperature for 40 minutes. • 14) Staining buffer was added to wash for twice with 1 mL for each well, and centrifugation was carried out at 600 g for 5 minutes. • 15) After discarding the supernatant, the cell precipitation was re-suspended in 300 μL of staining buffer. • 16) Sample loading and analysis were carried out in a flow cytometer. The IC50 of the samples to be tested was obtained from the above, Table 1.

Series [2] concerns the target JAK3 (JH1) (Homo sapiens (Human), UniProt P52333). The series can be described thus: JAK family kinase experiment, JAK3 (JH1). The format is biochemical. Here is the method:
(§1) 1.2.1. The compound was dissolved with DMSO to a storage concentration of 10 mM.
(§2) 1.2.2. A compound concentration of 100 times the final concentration was prepared in a compound dilution plate, which was diluted from the highest concentration point with a total of 4 concentration points using the 27 times dilution method, and transferred to the Echo plate.
(§3) 1.2.3. The compound was flushed from the Echo plate to the 384 experimental plate using an Echo instrument, and the compound become 11 concentration points of the 3-fold dilution matrix.
(§4) 1.2.4. 2× kinase working solution was prepared, which was added to a 384-well experimental plate at 5 μl per well. The compound and the kinase were incubated at room temperature for 15 minutes.
(§5) 1.2.5. 5 ul of 2× substrate (containing ATP) was added to the 384 well plate.
(§6) 1.2.6. Incubation was conducted at room temperature for 45 minutes.
(§7) 1.2.7. The detection reagent mixture was added to the 384-well plate, and centrifuged for 30 seconds, and incubation was conducted at room temperature for 60 minutes.
(§8) 1.2.8. The signal values were read using Envision Microplate Reader (PerkinElmer).
(§9) 1.3.1. XL-Fit software was used for data analysis to obtain IC50 of the compounds, Table 2.

Series [3] concerns the target TYK2 (JH1) (Homo sapiens (Human), UniProt P29597). The series is described as follows: JAK family kinase experiment, TYK2 (JH1). The format is biochemical. Here is the method: as §1, §2, §3, §4, §5, §6, §7, §8, §9
The target in series [4] is JAK1(JH2) (Homo sapiens (Human), UniProt P23458). The series is described as follows: Pseudo kinase experiment, JAK1 (JH2), tracer/Tb. The format is binding. On the procedure: (§10) 1.1.1. The compound was dissolved with DMSO to a storage concentration of 10 mM.
Chain of JAK1(JH2) (P23458 583-855): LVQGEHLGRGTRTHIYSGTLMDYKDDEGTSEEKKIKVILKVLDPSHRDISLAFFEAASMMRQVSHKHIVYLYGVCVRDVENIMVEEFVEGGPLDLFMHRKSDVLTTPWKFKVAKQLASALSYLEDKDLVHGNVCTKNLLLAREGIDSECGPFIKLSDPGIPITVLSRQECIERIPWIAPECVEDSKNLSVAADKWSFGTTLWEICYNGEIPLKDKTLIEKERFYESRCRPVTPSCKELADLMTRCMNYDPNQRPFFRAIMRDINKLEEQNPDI
(§11) 1.1.2. A compound concentration of 200 times the final concentration was prepared in a compound dilution plate, which was diluted from the highest concentration point with a total of 4 concentration points using the 27 times dilution method, and transferred to the Echo plate.
(§12) 1.1.3. The compound was flushed from the Echo plate to the 384-well experimental plate using an Echo instrument, and the compound become 11 concentration points of the 3-fold dilution matrix.
(§13) 1.1.4. 5 μl of 3×TYK2(JH2) or JAK1(JH2) kinase was added to the 384-well experimental plate.
(§14) 1.1.5. 5 μl of 3×Tb was added to the 384-well experimental plate.
(§15) 1.1.6.5 μl of 3× Tracer was added to the 384-well experimental plate.
(§16) 1.1.7. Centrifugation was conducted for 30 seconds and incubation was carried out at room temperature for 60 minutes.
(§17) 1.1.8. The signal values were read using Envision Microplate Reader (PerkinElmer).
as §9

The target in series [5] is JAK2 (JH1) (Homo sapiens (Human), UniProt O60674). The series can be described thus: JAK family kinase experiment, JAK2 (JH1). The format is biochemical. On the procedure:
as §1, §2, §3, §4, §5, §6, §7, §8, §9

Series [6] has as its target JAK1 (JH1) (Homo sapiens (Human), UniProt P23458). The series is described as follows: JAK family kinase experiment, JAK1 (JH1). The format is biochemical. On the procedure: as §1, §2, §3, §4, §5, §6, §7, §8, §9
The nature of series [7]: Drug concentrations in plasma samples and brain tissue samples after oral administration, LC-MS/MS. The format is in vivo, female C57BL/6 mice. The settings on record: female, C57BL/6, mouse, 15 consecutive days, 2Hr after the last dose, mice; for Kp at 2 h: brain/plasma, read-out: Ratio (brain tissue to plasma concentration). On the procedure: The purpose of the study was to evaluate drug concentrations in plasma samples and brain tissue samples of female C57BL/6 mice after 15 consecutive days of oral administration of 10 mg/kg, 30 mg/kg, and 90 mg/kg of Compound 4S. The drug concentrations of Compound 4S in plasma samples and brain tissue homogenate samples were detected by the positive ion (ESI) multi-reactive ion monitoring (MRM) scanning mode of LC-MS instrument with a linear range of 1-10000 ng/mL.
Plasma samples from 10 mice orally administered with Compound 4S: For standard curves, QC samples, single blanks, and unknown samples, the sample volume was 10 μL and each was added with 200 μL of methanol: acetonitrile=1:1 (v/v) precipitant (containing 5 ng/mL of Terfenadine). For double-blank samples, each was added with 200 μL of Methanol: Acetonitrile=1:1 (v/v) precipitant. The samples were vortexed for 1 min and centrifuged for 15 min (4000 rpm, 4° C.) to obtain the supernatant solution, which was diluted by 10-fold using methanol: water=1:1 (v/v, containing 0.1% FA) as the diluent solution and then subjected to LC-MS/MS analysis.
Brain tissue homogenate samples from 10 mice orally administered with Compound 4S: For standard curves, QC samples, single blanks, and unknown samples, the sample volume was 50 μL and each was added with 200 μL of methanol: acetonitrile=1:1 (v/v) precipitant (containing 5 ng/mL of Terfenadine). For double-blank samples, a 50 μL sample of blank brain tissue homogenate was taken and added with 200 μL of methanol/acetonitrile (1:1, v/v) precipitant. The samples were vortexed for 1 min and centrifuged for 15 min (4000 rpm, 4° C.) to obtain the supernatant solution, which was diluted by 10-fold using methanol: water=1:1 (v/v, containing 0.1% FA) as the diluent solution and then subjected to LC-MS/MS analysis. Drug exposures in plasma samples and brain tissue samples at different administered doses and at different frequencies of administration of the same administered dose were compared (Table 3).

Series [8] concerns the target TYK2(JH2) (Homo sapiens (Human), UniProt P29597). The series is described as follows: Pseudo kinase experiment, TYK2 (JH2), tracer/Tb. The format is binding. On the procedure: as §10, §11, §12, §13, §14, §15, §16, §17, §9

Like-named read-outs stand apart in the source and are kept apart here.

Chain of TYK2(JH2) (P29597 589-875): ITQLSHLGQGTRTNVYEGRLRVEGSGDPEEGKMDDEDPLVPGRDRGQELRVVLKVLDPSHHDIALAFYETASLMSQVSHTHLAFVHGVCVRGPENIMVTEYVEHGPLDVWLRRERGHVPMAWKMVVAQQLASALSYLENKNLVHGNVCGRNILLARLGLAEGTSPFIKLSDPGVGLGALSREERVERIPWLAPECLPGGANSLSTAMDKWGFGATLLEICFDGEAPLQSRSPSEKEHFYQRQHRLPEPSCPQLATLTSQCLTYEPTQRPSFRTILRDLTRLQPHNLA
Chain of TYK2 (JH1) (P29597 897-1176): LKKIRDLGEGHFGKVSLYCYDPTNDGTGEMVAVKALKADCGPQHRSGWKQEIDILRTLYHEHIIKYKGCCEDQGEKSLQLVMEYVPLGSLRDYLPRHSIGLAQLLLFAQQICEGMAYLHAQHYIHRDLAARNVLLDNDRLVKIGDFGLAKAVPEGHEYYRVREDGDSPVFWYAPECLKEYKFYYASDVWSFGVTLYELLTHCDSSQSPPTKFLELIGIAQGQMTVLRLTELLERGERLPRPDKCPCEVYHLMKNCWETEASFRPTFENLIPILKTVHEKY
Chain of JAK2 (JH1) (O60674 849-1124): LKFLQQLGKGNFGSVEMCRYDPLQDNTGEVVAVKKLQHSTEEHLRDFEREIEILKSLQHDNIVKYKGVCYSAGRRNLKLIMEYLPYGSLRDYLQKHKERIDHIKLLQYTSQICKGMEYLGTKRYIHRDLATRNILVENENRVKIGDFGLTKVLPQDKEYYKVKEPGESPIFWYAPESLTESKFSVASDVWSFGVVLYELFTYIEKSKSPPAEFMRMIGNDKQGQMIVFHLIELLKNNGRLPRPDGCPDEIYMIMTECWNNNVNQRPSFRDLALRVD
Chain of JAK1 (JH1) (P23458 875-1153): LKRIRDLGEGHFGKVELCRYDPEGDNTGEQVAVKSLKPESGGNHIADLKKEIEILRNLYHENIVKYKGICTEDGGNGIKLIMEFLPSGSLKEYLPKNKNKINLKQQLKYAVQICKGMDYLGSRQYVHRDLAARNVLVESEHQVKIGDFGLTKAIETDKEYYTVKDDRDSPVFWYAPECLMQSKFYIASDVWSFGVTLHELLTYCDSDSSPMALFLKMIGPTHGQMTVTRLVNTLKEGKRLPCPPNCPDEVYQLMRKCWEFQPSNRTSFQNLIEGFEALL
Chain of JAK3 (JH1) (P52333 822-1111): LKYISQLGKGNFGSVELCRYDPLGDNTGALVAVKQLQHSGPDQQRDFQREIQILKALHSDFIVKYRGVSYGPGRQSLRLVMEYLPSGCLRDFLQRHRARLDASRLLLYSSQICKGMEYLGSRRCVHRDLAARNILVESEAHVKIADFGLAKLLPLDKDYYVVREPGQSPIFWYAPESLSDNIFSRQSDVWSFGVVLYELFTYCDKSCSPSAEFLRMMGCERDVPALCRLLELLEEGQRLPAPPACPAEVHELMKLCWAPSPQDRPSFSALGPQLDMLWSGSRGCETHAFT

One may read the IC50 as the concentration needed to halve the response being measured. In series [1], `[2H]C([2H])([2H])Oc1c(-c2cnn(C([2H])([2H])[2H])n2)ccnc1Nc1cc(NC(=O)[C@@H]2CC23CC3)ncc1C(=O)CC` [Compound 5R] yielded an IC50 of more than 50 nM.
`[2H]C([2H])([2H])n1ncc(-c2ccnc(Nc3cc(NC(=O)[C@H]4CC45CC5)ncc3C(=O)CC)c2OC)n1` [Compound 3S] had an IC50 in series [1] of less than 50 nM.
`[2H]C([2H])([2H])Oc1c(-c2cnn(C)n2)ccnc1Nc1cc(NC(=O)[C@@H]2CC23CC3)ncc1C(=O)CC` [Compound 4R] came in with an IC50 in series [1] of more than 50 nM.
Regarding `[2H]C([2H])([2H])Oc1c(-c2cnn(C)n2)ccnc1Nc1cc(NC(=O)[C@H]2CC23CC3)ncc1C(=O)CC` [Compound 4S], the IC50 in series [2] is more than 9900 nM; in series [3] it was more than 9900 nM; in series [4] it was 22 nM; in series [5], 5420 nM; in series [1] it was less than 50 nM; in series [6], more than 9900 nM. Further, 0.29 nM corresponded to half-maximal inhibition in series [8] (IC50). Also, the concentration at 2 h in series [7] (brain, 10 mg/kg, 10 mg QD oral, read-out: concentration in brain) is 615 ng/mL; in series [7] (brain, 30 mg/kg, 30 mg BID oral, read-out: concentration in brain) it was 2360 ng/mL; in series [7] (brain, 30 mg/kg, 30 mg QD oral, read-out: concentration in brain), 2360 ng/mL; in series [7] (brain, 90 mg/kg, 90 mg QD oral, read-out: concentration in brain), 6260 ng/mL; in series [7] (plasma, 10 mg/kg, 10 mg QD oral, read-out: concentration in plasma) it was 784 ng/mL; in series [7] (plasma, 30 mg/kg, 30 mg BID oral, read-out: concentration in plasma) it was 2740 ng/mL. The concentration at 2 h in series [7] (plasma, 30 mg/kg, 30 mg QD oral, read-out: concentration in plasma) was 2040 ng/mL; in series [7] (plasma, 90 mg/kg, 90 mg QD oral, read-out: concentration in plasma), 4720 ng/mL. Further, the Kp at 2 h in series [7] (10 mg/kg, 10 mg QD oral) is 0.788; in series [7] (30 mg/kg, 30 mg BID oral), 0.88; in series [7] (30 mg/kg, 30 mg QD oral), 1.11; in series [7] (90 mg/kg, 90 mg QD oral), 1.32.
Take `CCC(=O)c1cnc(NC(=O)[C@H]2CC23CC3)cc1Nc1cccc(-c2cnn(C)n2)c1OC` [Compound 2S]: the IC50 in series [1] was more than 50 nM.
Same read-out and setting: the same measure for `[2H]C([2H])([2H])Oc1c(-c2cnn(C([2H])([2H])[2H])n2)ccnc1Nc1cc(NC(=O)[C@H]2CC23CC3)ncc1C(=O)CC` [Compound 5S]: less than 50 nM; for `CCC(=O)c1cnc(NC(=O)[C@H]2CC23CC3)cc1Nc1nc(C)cc(-c2cnn(C)n2)c1OC` [Compound 6S]: less than 50 nM; for `CCC(=O)c1cnc(NC(=O)[C@@H]2CC23CC3)cc1Nc1cccc(-c2cnn(C)n2)c1OC` [Compound 2R]: more than 50 nM.
Consider `CCC(=O)c1cnc(NC(=O)[C@H]2CC23CC3)cc1Nc1nccc(-c2cnn(C)n2)c1OC` [Compound 1S], for which, in series [1], the IC50 is less than 50 nM.
Turning to `CCC(=O)c1cnc(NC(=O)[C@@H]2CC23CC3)cc1Nc1nc(C)cc(-c2cnn(C)n2)c1OC` [Compound 6R], the IC50 in series [1] is less than 50 nM.
Same read-out and setting: the figure for `[2H]C([2H])([2H])n1ncc(-c2ccnc(Nc3cc(NC(=O)[C@@H]4CC45CC5)ncc3C(=O)CC)c2OC)n1` [Compound 3R] is less than 50 nM; for `CCC(=O)c1cnc(NC(=O)[C@@H]2CC23CC3)cc1Nc1nccc(-c2cnn(C)n2)c1OC` [Compound 1R] it is more than 50 nM.
